Data taken from patent publication US8329422B2, “Analysis of circulating tumor cells, fragments, and debris” (Veridex LLC, priority 2001, dated 2012).

Legend:
Type in all cases: cell-based
[1] = Viability of LnCaP cells by trypan blue exclusion after culture with paclitaxel; conditions: human, LnCaP prostate cell line; LnCaP cells cultured with 40 nM paclitaxel for 72 hours
Description: (§1) To investigate the effect of apoptosis induced by cytotoxic agents on flow cytometric and CELLSPOTTER® analysis of CTC, cells from the prostate cell line LnCaP were cultured in the presence or absence of 40 nM paclitaxel for 72 hours. […] The treated and untreated LnCaP cells were spiked into blood of healthy donors, selected by the ferrofluid methods described above, and analyzed by the CELLSPOTTER® system.

LnCaP cells [2] = test: CELLSPOTTER analysis of paclitaxel treated LnCaP cells spiked into blood of healthy donors (model to mimic tumor cell death); conditions: immunomagnetically selected
Description: as §1

LnCaP cells [3] = test: M30 Cytodeath antibody staining of caspase-cleaved cytokeratin 18; conditions: paclitaxel treated LnCaP cells
Description: Cells of the prostate cell line LnCaP were cultured with or without paclitaxel and spiked into blood of healthy donors.

CC(=O)O[C@H]1C(=O)[C@@]2(C)[C@H]([C@H](OC(=O)c3ccccc3)[C@]3(O)C[C@H](OC(=O)[C@H](O)[C@@H](NC(=O)c4ccccc4)c4ccccc4)C(C)=C1C3(C)C)[C@]1(OC(C)=O)CO[C@@H]1C[C@@H]2O [paclitaxel]
viability at 72 h, 40 nM [1]: 33%
signs of apoptosis (morphology, punctate cytokeratin staining) (LnCaP cells [2]): displayed signs of apoptosis
staining with M30 Cytodeath antibody (early apoptosis) (LnCaP cells [3]): stained with M30
